Structures can show the parent of a compound that is named as a salt. Where two headings read alike, the source gives them in different places.
Legend:
[1] = tested on: mice treated with aconitin; assay: animal or person; type: in vivo; details: Mus musculus, read-out: Delay in the appearance time of arrhythmia
Method: Arrhytmia was induced in male mice, weighing 20 to 25 g, by treating them continuously, at a rate of 0.2 ml/min with an infusion containing 5 μg/kg of aconitin. The test compound was administered to the animals either intraperitoneally (by injecting it into the abdominal cavity) 15 minutes before the start of the infusion, or orally 60 minutes before the onset of the infusion. The time of the appearance of arrhythmia was recorded, and the percentage of delay was calculated in relation to the data obtained in the controls, pretreated with 0.9 percent sodium chloride solution only [B. Vargaftig and J. L. Coignet: European J. of Pharmacol. 6, 49 to 55 (1969); N. K. Dadkar and B. K. Bhattachariya: Arch. Int. Pharmacodyn. 212, 297 to 301 (1974); D. U. Nwagwu, T. L. Holcslaw and S. J. Stohs: Arch. Int. Pharmacodyn. 229, 219 to 226 (1977)].

[2] = tested on: right ventricle of isolated rabbit heart; assay: Electrophysiological tests in the isolated rabbit heart, right ventricle; details: n = 4
Method: (§1) Hearts of rabbits of both sexes, weighing 1 to 2 kg, were removed, the right and left auricles and a segment of the right ventricle were prepared and placed into a vessel filled with nutrient solution. Bipolar platinum electrodes (a stimulating electrode and a lead electrode) were placed on the organ strips, and the electric stimulus threshold and the speed of impulse conduction were measured. The effective refractory period was determined on the basis of the maximal driving frequency.

[3] = tested on: left auricle of isolated rabbit heart; assay: Electrophysiological tests in the isolated rabbit heart, left auricle; details: for Change in conduction time / Change in electric stimulus threshold / Change in max. driving frequency: n = 4
Method: as §1

in vivo = details: mouse

Cc1ccccc1NNC(=N)N(C)C [Example 1, 1-(2-Methylphenyl)-4,4-dimethyl-aminoguanidine hydrochloride]
change in vivo at 25 mg/kg ([1]; ip): 164%
change in vivo at 50 mg/kg ([1]; ip): 174%
change in vivo at 50 mg/kg ([1]; po): 102%
change in vivo at 100 mg/kg ([1]; po): 197%
Change in conduction time ([2]; 0.25 mg/l): +0.2%
Change in electric stimulus threshold ([2]; 0.25 mg/l): 0%
Change in max. driving frequency ([2]; 0.25 mg/l): -0.88%
Change in conduction time ([2]; 0.5 mg/l): +3.31%
Change in electric stimulus threshold ([2]; 0.5 mg/l): -1.43%
Change in max. driving frequency ([2]; 0.5 mg/l): -0.38%
Change in conduction time ([2]; 1.0 mg/l): +14.84%
Change in electric stimulus threshold ([2]; 1.0 mg/l): +5.42%
Change in max. driving frequency ([2]; 1.0 mg/l): -1.82%
Change in conduction time ([2]; 2.0 mg/l): +36.75%
Change in electric stimulus threshold ([2]; 2.0 mg/l): +20.6%
Change in max. driving frequency ([2]; 2.0 mg/l): -10.33%
Change in conduction time ([2]; 4.0 mg/l): +52.45%
Change in electric stimulus threshold ([2]; 4.0 mg/l): +23.6%
Change in max. driving frequency ([2]; 4.0 mg/l): -17.43%
Change in conduction time ([2]; 8.0 mg/l): +77.82%
Change in electric stimulus threshold ([2]; 8.0 mg/l): +35.8%
Change in max. driving frequency ([2]; 8.0 mg/l): -36.8%
Change in conduction time ([3]; 0.25 mg/l): +0.54%
Change in electric stimulus threshold ([3]; 0.25 mg/l): 0%
Change in max. driving frequency ([3]; 0.25 mg/l): -0.08%
Change in conduction time ([3]; 0.5 mg/l): +8.66%
Change in electric stimulus threshold ([3]; 0.5 mg/l): -1.82%
Change in max. driving frequency ([3]; 0.5 mg/l): -0.98%
Change in conduction time ([3]; 1.0 mg/l): +12.55%
Change in electric stimulus threshold ([3]; 1.0 mg/l): -11.8%
Change in max. driving frequency ([3]; 1.0 mg/l): -9.21%
Change in conduction time ([3]; 2.0 mg/l): +28.42%
Change in electric stimulus threshold ([3]; 2.0 mg/l): +30.84%
Change in max. driving frequency ([3]; 2.0 mg/l): -17.09%
Change in conduction time ([3]; 4.0 mg/l): +47.87%
Change in electric stimulus threshold ([3]; 4.0 mg/l): +43.4%
Change in max. driving frequency ([3]; 4.0 mg/l): -28.82%
Change in conduction time ([3]; 8.0 mg/l): +114.03%
Change in electric stimulus threshold ([3]; 8.0 mg/l): +83.9%
Change in max. driving frequency ([3]; 8.0 mg/l): -59.1%
inhibition at 0.25 µg/mL ([3]; Oryctolagus cuniculus, 0.25 mg/l, n = 4, read-out: Contractility): 2.61%
inhibition at 0.5 µg/mL ([3]; Oryctolagus cuniculus, 0.5 mg/l, n = 4, read-out: Contractility): 7.57%
inhibition at 1 µg/mL ([3]; Oryctolagus cuniculus, 1.0 mg/l, n = 4, read-out: Contractility): 15.5%
inhibition at 2 µg/mL ([3]; Oryctolagus cuniculus, 2.0 mg/l, n = 4, read-out: Contractility): 18.1%
inhibition at 4 µg/mL ([3]; Oryctolagus cuniculus, 4.0 mg/l, n = 4, read-out: Contractility): 27.1%
inhibition at 8 µg/mL ([3]; Oryctolagus cuniculus, 8.0 mg/l, n = 4, read-out: Contractility): 37.9%
LD50 (in vivo; ip): 81 mg/kg
LD50 (in vivo; po): 203 mg/kg
